Source: ChEMBL document CHEMBL1629623, “In vitro activity of the quinolone WCK 771 against recent U.S. hospital and community-acquired Staphylococcus aureus pathogens with various resistance types” (Antimicrob Agents Chemother, 2009)
≈ marks a conversion by molar mass, not a printed value. Calls of active or inactive are those of the source. The rule behind the calls is not given here.

What was measured:
[1] = system: Staphylococcus aureus; experiment: Antibacterial activity against vancomycin-resistant Staphylococcus aureus VRS6 harboring GyrA S84L and GrlA S80F, E84G mutant after 24 hrs by CLSI method; type: functional; conditions: VRS6, 24 h
[2] = system: Staphylococcus aureus; experiment: microbe, parasite or virus in culture; conditions: Staphylococcus aureus, 34, 24 h
Description: Antibacterial activity against vancomycin-susceptible methicillin-resistant Staphylococcus aureus 34 harboring GyrA S84L and GrlA S80F mutant after 24 hrs by CLSI method

[3] = Ratio of AUC in human to MIC for Staphylococcus aureus after 24 hrs; type: functional
[4] = system: Staphylococcus aureus; experiment: microbe, parasite or virus in culture; conditions: Mu3, 24 h
Description: Antibacterial activity against vancomycin-intermediate Staphylococcus aureus Mu3 harboring GyrA S84L and GrlA S80F mutant after 24 hrs by CLSI method

[5] = system: Staphylococcus aureus; experiment: Antibacterial activity against vancomycin-intermediate Staphylococcus aureus Mu50 harboring GyrA S84L and GrlA S80F mutant after 24 hrs by CLSI method; type: functional; conditions: Mu50, 24 h
[6] = system: Staphylococcus aureus; experiment: Antibacterial activity against vancomycin-resistant Staphylococcus aureus VRS1 harboring GyrA S84L and GrlA S80F mutant after 24 hrs by CLSI method; type: functional; conditions: VRS1, 24 h
[7] = system: Staphylococcus aureus; experiment: Antibacterial activity against community acquired methicillin-resistant Staphylococcus aureus after 24 hrs by CLSI method; type: functional
[8] = system: Staphylococcus aureus; experiment: Antibacterial activity against vancomycin-resistant Staphylococcus aureus VRS2 harboring GyrA S84L and GrlA S80F mutant after 24 hrs by CLSI method; type: functional; conditions: VRS2, 24 h
[9] = system: Staphylococcus aureus; experiment: Antibacterial activity against vancomycin-resistant Staphylococcus aureus VRS7 harboring GyrA S84L and GrlA S80F mutant after 24 hrs by CLSI method; type: functional, organism-based
[10] = system: Staphylococcus aureus; experiment: Antibacterial activity against Staphylococcus aureus after 24 hrs by CLSI method; type: functional
[11] = system: Staphylococcus aureus; experiment: Antibacterial activity against hospital acquired methicillin-resistant Staphylococcus aureus after 24 hrs by CLSI method; type: functional
[12] = system: Staphylococcus aureus; experiment: Antibacterial activity against vancomycin-resistant Staphylococcus aureus VRS5 harboring GyrA S84L, E88K and GrlA S80Y, E84G mutant after 24 hrs by CLSI method; conditions: VRS5, 24 h
[13] = system: Staphylococcus aureus; experiment: microbe, parasite or virus in culture; conditions: Staphylococcus aureus, 32, 24 h
Description: Antibacterial activity against vancomycin-susceptible methicillin-resistant Staphylococcus aureus 32 harboring GyrA S84L and GrlA S80Y mutant after 24 hrs by CLSI method

[14] = system: Staphylococcus aureus; experiment: Antibacterial activity against vancomycin-intermediate Staphylococcus aureus after 24 hrs by CLSI method; type: functional
[15] = system: Staphylococcus aureus; experiment: Antibacterial activity against quinolone-resistant Staphylococcus aureus after 24 hrs by CLSI method; type: functional
[16] = system: Staphylococcus aureus; experiment: Antibacterial activity against vancomycin-resistant Staphylococcus aureus VRS3 harboring GyrA S84L and GrlA S80F, E84K mutant after 24 hrs by CLSI method; type: functional; conditions: VRS3, 24 h
[17] = system: Staphylococcus aureus; experiment: Antibacterial activity against methicillin-susceptible Staphylococcus aureus after 24 hrs by CLSI method; type: functional
[18] = system: Staphylococcus aureus; experiment: Antibacterial activity against vancomycin-resistant Staphylococcus aureus VRS4 harboring GyrA S84L and GrlA S80F, E84K mutant after 24 hrs by CLSI method; type: functional, organism-based
[19] = AUC in human at 800 mg, iv qd after 24 hrs; type: ADME, organism-based; parameters: dose 800 mg, time < 24 hr, route intravenous; conditions: plasma

Compound	MIC [1] [µg/mL]	MIC [5] [µg/mL]	MIC [6] [µg/mL]	MIC50 [7] [µg/mL]	MIC90 [7] [µg/mL]	MIC [8] [µg/mL]	MIC50 [10] [µg/mL]	MIC90 [10] [µg/mL]	MIC50 [11] [µg/mL]	MIC90 [11] [µg/mL]	MIC [12] [µg/mL]	MIC50 [14] [µg/mL]	MIC90 [14] [µg/mL]	MIC50 [15] [µg/mL]	MIC90 [15] [µg/mL]	MIC [16] [µg/mL]	MIC50 [17] [µg/mL]	MIC90 [17] [µg/mL]	also measured
C[C@H]1CCc2c(N3CCC(O)CC3)c(F)cc3c(=O)c(C(=O)O)cn1c23.N=C(N)NCCC[C@H](N)C(=O)O	0.5	1	0.5	0.03	0.5	0.5	0.03	1	0.5	1	8	0.25	0.5	0.5	1	0.5	0.03	0.25	MIC [2]: 0.5 µg/mL; RatioAUC/MIC [3]: 58.5; MIC [4]: 1 µg/mL; Activity [9]: Active; MIC [13]: 0.5 µg/mL; Activity [18]: Active; AUC at 24 h [19]: 390 µg·h/mL
CN[C@H](CC(C)C)C(=O)N[C@H]1C(=O)N[C@@H](CC(N)=O)C(=O)N[C@H]2C(=O)N[C@H]3C(=O)N[C@H](C(=O)N[C@H](C(=O)O)c4cc(O)cc(O)c4-c4cc3ccc4O)[C@H](O)c3ccc(c(Cl)c3)Oc3cc2cc(c3O[C@@H]2O[C@H](CO)[C@@H](O)[C@H](O)[C@H]2O[C@H]2C[C@](C)(N)[C@H](O)[C@H](C)O2)Oc2ccc(cc2Cl)[C@H]1O [VANCOMYCIN]	128 (≈ 88.3 µM)	8 (≈ 5.52 µM)	128 (≈ 88.3 µM)	1 (≈ 0.69 µM)	1 (≈ 0.69 µM)	32 (≈ 22.1 µM)	1 (≈ 0.69 µM)	1 (≈ 0.69 µM)	1 (≈ 0.69 µM)	4 (≈ 2.76 µM)	64 (≈ 44.2 µM)	4 (≈ 2.76 µM)	4 (≈ 2.76 µM)	1 (≈ 0.69 µM)	4 (≈ 2.76 µM)	64 (≈ 44.2 µM)	1 (≈ 0.69 µM)	1 (≈ 0.69 µM)	–
